The structures appear in SMILES notation.

The test system of one experiment is A549 lung cancer cells. The experiment is described as follows: SRB growth inhibition of A549 lung cancer cells. Type of experiment: cell-based, human. The following applies: A549 lung cancer cells; unit inferred; read-out: SRB (IC50 for growth inhibition of A549 lung cancer cells). From the text: As a non-limiting example, compounds 1272 and 1273 (set forth in Table 1) were synthesized starting from 3-bromoaniline, which upon condensation with hydroxylamine and chloral hydrate followed by concentrated sulfuric acid yielded an inseparable regioisomeric mixture of 4- and 6-bromo isatins. The addition of the two phenyl groups to the three position of the oxindole allowed easy chromatographic separation of the 4- and 6-bromo-3,3-diphenyloxindoles 1272 and 1273. Table 1 sets forth biological data for diaryloxindole compounds including, but not limited to 1272 and 1273. For Tables 1-14, Ca^2+ refers to Ca^2+ release from intracellular stores where a “+” denotes release and a “+/−” denotes inconclusive; eIF2α-P refers to phosphorylation of eIF2α measured by Western blot; SRB refers to the inhibitory concentration to reduce cell growth by 50% (IC50) for growth inhibition of A549 lung cancer cells; and n.d. is not determined. […]
One may read the IC50 as the midpoint of a concentration-inhibition curve. Consider `O=C1Nc2ccccc2C1(c1cccc(F)c1)n1ccnc1` (stereo not shown) [Compound 1316], for which the IC50 was > 20 µM.

As for `CC(=O)Nc1ccc(S(=O)(=O)N2C(=O)C(c3ccccc3)(c3ccccc3)c3ccccc32)cc1` [Compound 1308], the IC50 is 11 µM.

Take `O=C1Nc2ccccc2C1(c1ccccc1)n1ccnc1` (stereo not shown) [Compound 1315]: the IC50 is > 20 µM. With `Cc1cc(C2(c3ccccc3)C(=O)Nc3c(C(=O)O)cccc32)c(NS(=O)(=O)c2ccc(C(C)(C)C)cc2)cc1O` (stereo not shown) [Compound 1431], the IC50 is > 20 µM. On the same count and under the same terms, as for `O=C1N(c2ccccc2)c2ccccc2C1(c1ccccc1)c1ccccc1` [Compound 1300], the figure is 8 µM; as for `COc1ccc(C2(c3ccccc3)C(=O)Nc3ccccc32)c(CC(=O)O)c1` (stereo not shown) [Compound 1327], > 20 µM; as for `O=C1Nc2ccccc2C1(c1ccc(O)cc1)c1ccc(O)cc1` [Compound 1259], > 20 µM.

`CC(C)(C)c1ccc(O)c(C2(c3ccccc3)C(=O)N(c3ccccc3)c3ccccc32)c1` (stereo not shown) [Compound 1255]: the IC50 stood at 4 µM. With `O=C1N(CO)c2ccccc2C1(c1ccccc1)c1ccccc1` [Compound 1304], the IC50 came out at 10 µM.

Take `CC(C)(C)c1ccc(S(=O)(=O)N2C(=O)C(c3ccccc3)(c3ccccc3)c3ccccc32)cc1` [Compound 1311]: the IC50 stood at 11 µM. With `O=C1N(Cc2ccc(Cl)cc2)c2ccccc2C1(c1ccccc1)c1ccccc1` [Compound 1302], the IC50 was found to be 14 µM.

Take `CC(C)(C)c1ccc(O)c(C2(c3ccccc3)C(=O)N(CC(=O)O)c3ccccc32)c1` (stereo not shown) [Compound 1339]: the IC50 is > 20 µM.

Regarding `O=C1N(S(=O)(=O)c2ccc(Oc3ccccc3)cc2)c2ccccc2C1(c1ccccc1)c1ccccc1` [Compound 1307], the IC50 was > 20 µM. Same read-out and setting: then `CC(=O)Nc1cc(O)c(C)cc1C1(c2ccccc2)C(=O)Nc2ccccc21` (stereo not shown) [Compound 1639], with > 20 µM. As to `CCCCOc1ccc(S(=O)(=O)N2C(=O)C(c3ccccc3)(c3ccccc3)c3ccccc32)cc1` [Compound 1306], the IC50 was > 20 µM. As to `O=C1Nc2ccccc2C1(c1ccccc1)c1cc(C(F)(F)F)ccc1O` (stereo not shown) [Compound 1243], the IC50 is > 20 µM.

Regarding `Cc1cccc(C2(n3ccnc3)C(=O)Nc3ccccc32)c1` (stereo not shown) [Compound 1317], the IC50 was > 20 µM.

The same experiment, now with this note: Homo sapiens; A549 lung cancer cells; unit inferred; read-out: SRB (IC50 for growth inhibition of A549 lung cancer cells).
In the case of `CC(C)(C)c1ccc(OCC#N)c(C2(c3ccccc3)C(=O)N(CC#N)c3ccccc32)c1` (stereo not shown) [Compound 1320], the IC50 was 4 µM. Turning to `CC(C)(C)c1ccc2c(c1)C1(c3ccccc3)C(=O)N(C/C=C\CO2)c2ccccc21` (stereo not shown) [Compound 1291], the IC50 is > 20 µM.
